Source: patent US6479435B1, “Diaryl ethers and processes for their preparation and herbicidal and desiccant compositions containing them” (ISK Americas Incorporated, priority 1997, dated 2002)

How the values were obtained:
Broadleaf Weeds = assay: Pre-emergent application in combination with other herbicides, percent control of broadleaf weeds; format: in vivo
Procedure: (§1) All plants were grown in 10 cm square plastic pots which were filled with a sandy loam soil mix. For preemerge tests, seeds were planted one day prior to application of the test compounds. Immediately after application, test units of the pre-emerge applications were watered at the soil surface to incorporate the test materials. Subsequently, these test units were bottom-watered.
(§2) All test compounds were dissolved in acetone and applied to the test units in a volume of 187 l/ha. […] Plants were arranged on a shelf so that the top of the canopy (post-emerge) or top of the soil surface (pre-emerge) was 40-45 cm below the nozzle. Pressurized air was used to force the test solution through the nozzle as it was mechanically advanced (via electrically driven chain drive) over the top of all test plants/pots. This application simulates a typical commercial field herbicide application.
(§3) At 14 days after application of the test materials, phytotoxicity ratings were recorded. A rating scale of 0-100 was used as previously described in Research Methods in Weed Science, 2nd edition, B. Truelove, Ed., Southern Weed Science Society, Auburn University, Auburn, Ala., 1977. Briefly, “0” corresponds to no damage and “100” corresponds to complete death of all plants in the test unit. This scale was used both to determine efficacy against weed species and damage to crop species. Herbicide activity data for various compounds of this invention, which are shown by compound number in Tables 1-9, are shown in Tables 13 and 14.
(§4) (Note: Weed species abbreviations are from the Composite List of Weeds published by the Weed Science Society of America, 1989.)
The following examples illustrate the utility of combinations of compounds of this invention and existing herbicides. The methods used are identical to those for the application of single compounds except the commercial formulations of existing herbicides were added to the spray mixture in the appropriate amounts before spraying. […]
(§5) Combination Example 2. Pre-emergent Application of Compound 9-1 with Dimethenamid

Grass Weeds = assay: Pre-emergent application in combination with other herbicides, percent control of grass weeds; format: in vivo; settings: 1121 g ai/ha
Procedure: as §1, §2, §3, §4
The following examples illustrate the utility of combinations of compounds of this invention and existing herbicides. The methods used are identical to those for the application of single compounds except the commercial formulations of existing herbicides were added to the spray mixture in the appropriate amounts before spraying.
Combination Example 1. Pre-emergent Application of Compound 9-1 with Metolachlor
as §5

COCC(C)N(C(=O)CCl)c1c(C)csc1C (centres unmarked) [Dimethenamid, reference compound] was tested, and the “Percent Control of Broadleaf Weeds ABUTH” value (Broadleaf Weeds; 520 g ai/ha) was 40%, the “Percent Control of Broadleaf Weeds AMARE” value (Broadleaf Weeds; 520 g ai/ha) was 100% and the “Percent Control of Broadleaf Weeds AMBEL” value (Broadleaf Weeds; 520 g ai/ha) was 40%. The “Percent Control of Broadleaf Weeds CASOB” value (Broadleaf Weeds; 520 g ai/ha) was 40%, the “Percent Control of Broadleaf Weeds CHEAL” value (Broadleaf Weeds; 520 g ai/ha) was 30% and the “Percent Control of Broadleaf Weeds IPOHE” value (Broadleaf Weeds; 520 g ai/ha) was 0%. The “Percent Control of Grass Weeds DIGSA” value (Grass Weeds; Combination Example 2) was 100%, the “Percent Control of Grass Weeds ECHCG” value (Grass Weeds; Combination Example 2) was 100% and the “Percent Control of Grass Weeds SETVI” value (Grass Weeds; Combination Example 2) was 100%. The “Percent Control of Grass Weeds SORHA” value (Grass Weeds; Combination Example 2) was 100%.

For CCc1cccc(C)c1N(C(=O)CCl)C(C)COC (centres unmarked) [Metolachlor, reference compound], the “Percent Control of Broadleaf Weeds ABUTH” value (Broadleaf Weeds; 1121 g ai/ha) was 20%, the “Percent Control of Broadleaf Weeds AMARE” value (Broadleaf Weeds; 1121 g ai/ha) was 100% and the “Percent Control of Broadleaf Weeds AMBEL” value (Broadleaf Weeds; 1121 g ai/ha) was 30%. For the same compound, the “Percent Control of Broadleaf Weeds CASOB” value (Broadleaf Weeds; 1121 g ai/ha) was 10%, the “Percent Control of Broadleaf Weeds CHEAL” value (Broadleaf Weeds; 1121 g ai/ha) was 90% and the “Percent Control of Broadleaf Weeds IPOHE” value (Broadleaf Weeds; 1121 g ai/ha) was 20%. For the same compound, the “Percent Control of Grass Weeds DIGSA” value (Grass Weeds) was 100%, the “Percent Control of Grass Weeds ECHCG” value (Grass Weeds) was 100% and the “Percent Control of Grass Weeds SETVI” value (Grass Weeds) was 100%. The “Percent Control of Grass Weeds SORHA” value (Grass Weeds) was 100%.
